Reference: ChEMBL document CHEMBL3507680, “University of Dundee, Gates Library screen for HepG2 cell viability”

Assay: Human HepG2 cell viability assay in 384 well format
Type: toxicity, cell-based
Parameters: dose 125 nL, time 70.5 hour; concentration not given beside the values
Conditions: HepG2 cells, read-out: Inhibition

Compound | cytotoxicity at 70.5 h [%]
CN(Cc1cc(C[C@@H]2C[C@H](N)C2(C)C)no1)c1ccccc1 | -5.24
O=C1NC[C@H]2CN(Cc3nccs3)CCN12 | -8.47
COCCOC[C@]1(CNC(=O)c2ccc(OC)cc2)C[C@@H](O)[C@@H](O)C1 | -4.22
Cn1ccnc1CNC[C@H]1Cn2cc(-c3ccccc3)nc2CO1 | -8.01
Cc1ccc(-c2cn3c(n2)CO[C@@H](CNCc2nccn2C)C3)cc1 | -5.86
Cc1ccc2c(c1)nc1n2[C@@H](CNC(=O)c2cccnc2)COC1 | -4.19
Cc1cccc2c1nc1n2[C@@H](CNC(=O)c2ccccn2)COC1 | -1.91
CS(=O)(=O)c1ccc(O[C@H]2COCCN(Cc3ccncc3)C2)cc1 | -6.23
COCC(=O)N[C@H](C)c1onc(-c2ccc(Cl)cc2)c1C(=O)O | -1.96
COCC(=O)N[C@H](C)c1onc(-c2ccc(OC)cc2)c1C(=O)O | 10.8
COc1ccc(-c2noc([C@@H](C)NC(=O)NC(C)(C)C)c2C(=O)O)cc1 | -10.4
COCC(=O)N[C@H](C)c1c(-c2ccc(OC)cc2)noc1C(=O)O | -16.4
CC(=O)N[C@H](C)c1c(-c2ccc(Cl)cc2)noc1C(=O)O | -6.07
Cc1ccc2c(c1)nc1n2[C@@H](CNC(=O)c2cncnc2)COC1 | -2.41
COc1ccc2c(c1)nc1n2[C@@H](CNC(=O)c2cccnc2)COC1 | 4.29
c1cc(-c2noc([C@@H]3CCCN3CC3CC3)n2)cc(N2CCCC2)n1 | -11.8
CC(C)CNC[C@H]1COCc2nc3cccnc3n21 | 10
CS(=O)(=O)N1C[C@@H]2OCC(=O)N(CC3CCC3)[C@@H]2C1 | -6.88
O=C(N1CCOCC1)N1CCOC[C@H](Oc2ccc(C(F)(F)F)cc2)C1 | -5.44
Cc1cccc(CN2CCN3C(=O)NC[C@H]3C2)n1 | -2.26
FC(F)(F)c1ccccc1CN1CCOC[C@H](Oc2cccnc2)C1 | 1.03
CS(=O)(=O)NC[C@H]1Cn2c(-c3ccccc3)cnc2CO1 | -7.36

Compound | cytotoxicity at 70.5 h [%]
O=C1COC[C@H]([C@H](O)c2ccc(NC(=O)c3ccco3)cc2)N1 | -0.619
CC(C)(C)c1c[nH]c([C@@H]2COCCN2C2CCC2)n1 | -4.17
COC(=O)[C@@H]1Cc2c[nH]c3cccc(c23)[C@H](CC(C)C)N1 | -2.26
CC(C)NC(=O)N1C[C@@H](F)[C@@H](OCc2nc3ccccc3o2)C1 | -0.085
Cn1ncc2c(NCC3CCS(=O)(=O)C3)nc(-c3ccncc3)nc21 (stereo unspecified) | 21.3
CC(=O)Nc1cccc(C(=O)N2CCc3c(nc(N(C)C)[nH]c3=O)C2)c1 | 16.1
CCS(=O)(=O)c1ncc(CN(C)Cc2ccccc2Cl)n1CCOC | -2.37
CN(C)C[C@H]1C[C@@H](CO)CN(C(=O)c2cc(=O)[nH]c3cc(F)ccc23)C1 | -2.71
CCOc1ccccc1CN(C)C(=O)CN1C(=O)OC[C@@H]1C(C)C | 15.5
Cc1cccc(C(C(=O)N2CC(c3ccncc3)C2)N(C)C)c1 (stereo unspecified) | 12.4
O=C(O)c1cccc(CC2CCN(c3ncccn3)CC2)c1 | 3.25
CCN(Cc1ccncc1)c1cc(C2CCNCC2)nc(C)n1 | 19.5
COCCN(Cc1ccccn1)Cc1sccc1C | -10.3
CCn1cc(CN2CCC(c3ccncc3)CC2)cc1C#N | -5.65
CC(=O)N[C@H]1CCN(c2nc(C)nc3c2c(C)nn3C)C1 | -8.71
COc1cc(CN2CCN(CC3CC3)[C@@H]3CS(=O)(=O)C[C@@H]32)cc(OC)c1 | 3.14
COCCN1CCN(Cc2ccncc2)[C@H]2CS(=O)(=O)C[C@H]21 | -6.81
COc1ccc(OC)c(-c2nc(CN(C)Cc3nncn3C)c(C)o2)c1 | -6.73
CSCCC(=O)N1CCC(Oc2cc(C)ccc2F)(C(=O)O)CC1 | -7.4
O=C(CCc1ccsc1)N1CCC(Cc2ccc(CO)cc2)C1 (stereo unspecified) | -3.39
O=C1N(Cc2ccc(F)c(F)c2)CCCC12CCN(C1CCSCC1)C2 (stereo unspecified) | 9.34
C=Cc1ccc(C(=O)N2CCCC(Nc3ccc(F)cc3)C2)cc1 (stereo unspecified) | 17

Compound | cytotoxicity at 70.5 h [%]
Cc1cc(N2CCN3CCCCC3C2)n2nc(C)c(C)c2n1 (stereo unspecified) | 1.57
Cc1cccc(CN2C[C@H]3OC(=O)N(CCCN4CCOCC4)[C@H]3C2)n1 | -10.1
O=S(=O)(NCC1CCOc2ccccc2C1)N1CCOCC1 (stereo unspecified) | -14.9
COCC1CCCN(C(=O)c2cc(Cn3ccc4ccccc43)[nH]n2)C1 (stereo unspecified) | -6.02
O=C(c1ccc(F)c(F)c1)N1CCCC(Nc2ccc(F)cc2)C1 (stereo unspecified) | -5.1
Cc1occc1C(=O)N1CCC2(CCC(=O)N(CC(N)=O)C2)CC1 | -2.77
CS(=O)(=O)CCC(=O)N1CCC2(CCCN(C3CCOCC3)C2=O)C1 (stereo unspecified) | -9.61
O=C(CSc1ccncc1)N1C[C@H]2CC[C@@H]1CN(Cc1cccnc1)C2 | -2.1
Cn1ncc2c(NCCC34CCCN3CCC4)nc(C3CCCC3)nc21 | 5.19
COCCCC1(CO)CCCN(CCS(C)(=O)=O)C1 (stereo unspecified) | -6
C[C@@H]1CN(C(=O)c2ccc(C#N)nc2)C[C@@]1(O)C1CC1 | 13.9
CCn1ccnc1CN(C)C1CCCN(CCc2ccccc2)C1 (stereo unspecified) | 1.27
O=C(CCc1ccc(=O)[nH]n1)N1CCCC(COc2ccc(F)cc2)C1 (stereo unspecified) | -1.69
O=C(c1ccsc1)N1C[C@@H](CN2CCCC2)[C@@H](CO)C1 | 13.3
CN(C)C(=O)c1ccc2c(c1)N(C)C(CC(=O)NCCC(C)(C)C)CO2 (stereo unspecified) | -5.81
O=S(=O)(N1CCCC1)N1CCCCC1CCc1ccccc1 (stereo unspecified) | -5.36
CN(Cc1csc(-c2cccs2)n1)C(=O)CCn1ccccc1=O | -17.2
Cc1csc(CCCNC(=O)[C@H]2CNC[C@@H](C(=O)N3CCCC3)C2)n1 | -9.44
O=C(CSc1ncccn1)N1C[C@H]2CC[C@@H]1CN(Cc1ccncc1)C2 | -0.441
CC(=O)c1cc(CC(=O)NCc2ccc(CN(C)C)cc2)cs1 | -7.31
COc1cccc(N2CCN(C(=O)[C@H](O)C3CCCCC3)CC2=O)c1 | -8.15
Cc1cc(-c2nn(C)c(Cl)c2CN2CCOCC2CC(=O)O)no1 (stereo unspecified) | -7.35

Compound | cytotoxicity at 70.5 h [%]
COc1ccc(OCc2nc(C(=O)N3CC(O)C3)co2)cc1 | -8.01
COc1ccccc1OCc1cc(C(=O)N2CC=CC2C(C)C)n[nH]1 (stereo unspecified) | -6.89
O=C(c1coc(COc2cccc(F)c2)n1)N1CC[C@H](O)[C@@H](O)C1 | -9.89
O=C(NCCCc1ccncc1)C1CCCN(Cc2ccco2)C1 (stereo unspecified) | 9.58
CCCc1nc(C)cc(N2CCC3(CCC(=O)N(CC4CC4)C3)CC2)n1 | -11.1
O=C(c1ccc(C2CCCO2)s1)N1CCS(=O)(=O)CC1 (stereo unspecified) | -8.51
O=C(CCC1CC1)N1C[C@@H](CN2CCCC2)[C@@H](CO)C1 | -13.2
Cc1noc(C)c1C1CCCN1C(=O)CN1CC2(CCNCC2)OC1=O (stereo unspecified) | 19.7
Cn1c(Cn2ccnc2)nnc1C1CCN(Cc2cccnc2N)CC1 | -9.06
CCn1cc(CNC2CC(=O)N(CCc3cccc(Cl)c3)C2)cn1 (stereo unspecified) | -3.19
Nc1nccc(N2CCCC(CO)(CCOc3ccccc3)C2)n1 (stereo unspecified) | 8.14
Cc1ccc(OC2(C(=O)O)CCN(C(=O)c3nc(C)oc3C)CC2)cn1 | -7.82
COC1CCCN(C(=O)Nc2nc(C)n(C)n2)C1 (stereo unspecified) | -8.2
O=C(c1ccc[nH]1)N1C[C@H]2CC[C@@H]1CN(C1Cc3ccccc3C1)C2 | -9.66
CC(C)N1CCC(N2CCN(C3CCC3)CC2CCO)CC1 (stereo unspecified) | -9.59
COCCNC(=O)c1cc(S(=O)(=O)N2CCCCC2)cs1 | -13.8
CCS(=O)(=O)N(C)c1ccc(C(=O)N2CCCC(C)C2)cc1 (stereo unspecified) | -7.21
CC(C)C(=O)N1CCN(C(=O)c2cscn2)[C@H]2CS(=O)(=O)C[C@H]21 | -2.25
Cc1ccccc1CS(=O)(=O)NCCCN1CCCCC1 | -4.67
O=C(c1ccccc1-c1ccccc1)N1CCOC2(CNCCOC2)C1 (stereo unspecified) | -11.1
COCCNS(=O)(=O)c1ccc2c(c1)CCN(C(=O)c1cncn1C)C2 | -5.18
COc1ccc(Cc2nnc(SC)o2)cc1OC | -2.03

Compound | cytotoxicity at 70.5 h [%]
NC(=O)C1CCN(C(=O)c2cccc(CN3CCOCC3)c2)CC1 | 8.77
C[C@H](O)CNC(=O)c1cnc(-c2ccccc2)nc1O | -4.5
O=C(O)[C@]12CCCN(Cc3ccncc3)[C@@H]1CCN(c1cnccn1)C2 | 8.46
NC(=O)C1CCN(c2nc3nccc(-c4ccccc4)c3c(=O)[nH]2)CC1 | -13.2
CN1CCC(Oc2ccc(NC(=O)c3ccccc3Br)cc2)CC1 | -7.15
CN(C)C(=O)Cc1ccc(NC(=O)NC2CCCCC2)cc1 | -10.4
Cc1nn(-c2ccccc2)c2c1C(c1ccc(C(=O)O)cc1)CC(=O)N2 (stereo unspecified) | -3.05
CCC(NC(=O)C1CCN(S(C)(=O)=O)CC1)c1ccc(OC)c(C)c1 (stereo unspecified) | -9.2
Cc1cc(=O)n(CC(=O)Nc2ccc(C(N)=O)cc2)nc1C | -4.34
Cc1nc(N2CCN(C(=O)C(C)(C)C)CC2)cc(-n2cnc(C)c2C)n1 | 13
N#Cc1ccc(C2CC(=O)Nc3c2cnn3C2CCCC2)cc1 (stereo unspecified) | -2.74
CCNC(=O)[C@@H]1CCCN1[C@@H](C(=O)NC)c1ccccc1OC | -8.29
CNC(=O)[C@@H](c1ccccc1OC)N1CCC[C@H]1C(=O)N1CC[C@@H](O)C1 | -3.98
COCCOC[C@]1(CNCc2ccc(F)cc2)C[C@@H](O)[C@@H](O)C1 | 11.8
C[C@@H](NCc1cccc(Cl)c1)c1onc(-c2ccc(F)cc2)c1C(=O)O | -2.58
CC(C)CC(=O)N[C@H](C)c1c(-c2ccc(Cl)cc2)noc1C(=O)O | -7.33
CNC(=O)[C@@H](CC(C)C)N1CCC[C@H]1C(=O)N(C)Cc1ccccc1 | -7.93
CNC(=O)[C@@H](C1CCCCC1)N1CCC[C@H]1C(=O)NCCN1CCCC1 | 3.4
